Test [1] concerns CHO/HIRC cells overproducing the human insulin receptor. Description: Morphologic and growth control effects of insulin on CHO/HIRC test cells. In kind it is cell-based, Chinese Hamster. The following applies: 400 nM insulin. The source says:
(§1) These cell lines were generated using approaches analogous to those previously described for the PKC-overproducing cell lines. However, in these HIR studies we utilized a different expression vector, distinct cell lines, and an alternative method of gene transfer (direct transfection as opposed to virus-mediated transduction as used in the PKC experiments previously described). Briefly, CHO cells were co-transfected with the transfer vector pSVEneo (containing the neomycin resistance gene) and the expression vector pCVSVHIRc as previously described (White et al., 1988). After twenty four hours, the transfected cells were placed into 800 ug/ml G418 to select resistant cells. Approximately two weeks later, G418-resistant clones were isolated and subcloned. Clonal cell lines which express high levels of surface insulin receptors were selected by fluorescence-activated cell sorting. One such line (CHO/HIRC), which stably overproduced approximately 80,000 insulin receptors per CHO cell, was utilized in these experiments. A control CHO cell line (CHO/NEO), harboring only the pSVEneo transfer vector, were generated in analogous fashion. Detailed preliminary characterizations of this cell line have been described (White et al., 1988).
We then tested the ability of the CHO/HIRC and CHO/NEO cells to respond to the following insulin treatment protocol. Control cells, hereinafter termed CHO/NEO (which harbor pSVEneo alone), and the Test cells, termed CHO/HIRC (which stably overproduced about 80,000 insulin receptors per cell), were incubated in the presence and absence of insulin. Control (CHO/NEO) and Test (CHO/HIRC) cell lines were exposed to 400 nM of insulin and the resultant morphologic changes were observed and photographed using a Bausch and Lomb BL-200 phase-contrast microscope with a Nikon FM-200 camera attached.

The test system of a further test is CHO/NEO control cells. Description: Morphologic and growth control effects of insulin on CHO/NEO control cells. In kind it is cell-based, Chinese Hamster. The following applies: 400 nM insulin, 48 hours after treatment.
Excerpt: as §1
We then tested the ability of the CHO/HIRC and CHO/NEO cells to respond to the following insulin treatment protocol. […]

On to insulin, for which the morphologic changes entry in test [1] (24 hours after exposure) was “further pronounced”; in test [1] (after 18 hours) it was “profound morphologic changes”. In addition, the “adherence to the culture plate” value is “virtually all of the test cells had completely detached from the plate” in test [1] (48 hours after treatment) and “still largely intact” in the test with CHO/NEO control cells.

Values taken from patent publication US20060019329A1, “Method of screening for protein inhibitors and activators” (priority 1988, published 2006).
